Activity calls are given as the source filed them. No rule for the calls is given here.
System: CCRIS mutagenicity, Ames/micronucleus/aberration tests
Test: CCRIS mutagenicity studies

CS(C)=O
mutagenic call (Test System: AMES SALMONELLA TYPHIMURIUM, Strain/Indicator: TA1535, Metabolic Activation: RAT, LIVER, S-9, AROCLOR 1254 (10 OR 30%), Method: PREINCUBATION): inactive; negative | mutagenic call (Test System: AMES SALMONELLA TYPHIMURIUM, Strain/Indicator: TA1535, Metabolic Activation: RAT, LIVER, S-9, PHENOBARBITAL AND 5,6-BENZOFLAVONE, Method: PREINCUBATION (20 MIN)): inactive; negative | mutagenic call (Test System: AMES SALMONELLA TYPHIMURIUM, Strain/Indicator: TA1537, Metabolic Activation: HAMSTER, LIVER, S-9, AROCLOR 1254 (30%), Method: PREINCUBATION): inactive; negative | mutagenic call (Test System: AMES SALMONELLA TYPHIMURIUM, Strain/Indicator: TA1537, Metabolic Activation: NONE, Method: FLUCTUATION (MICROTITER)): inactive; negative | mutagenic call (Test System: AMES SALMONELLA TYPHIMURIUM, Strain/Indicator: TA1537, Metabolic Activation: NONE, Method: PREINCUBATION): inactive; negative | mutagenic call (Test System: AMES SALMONELLA TYPHIMURIUM, Strain/Indicator: TA1537, Metabolic Activation: NONE, Method: PREINCUBATION (20 MIN)): active; positive | mutagenic call (Test System: AMES SALMONELLA TYPHIMURIUM, Strain/Indicator: TA1537, Metabolic Activation: NONE, Method: PREINCUBATION (20 OR 60 MIN)): active; positive | mutagenic call (Test System: AMES SALMONELLA TYPHIMURIUM, Strain/Indicator: TA1537, Metabolic Activation: NONE, Method: STANDARD PLATE): inactive; negative | mutagenic call (Test System: AMES SALMONELLA TYPHIMURIUM, Strain/Indicator: TA1537, Metabolic Activation: RAT LIVER S-9, AROCLOR 1254, Method: FLUCTUATION (MICROTITER)): inactive; negative | mutagenic call (Test System: AMES SALMONELLA TYPHIMURIUM, Strain/Indicator: TA1537, Metabolic Activation: RAT, LIVER, S-9, AROCLOR 1254 (30%), Method: PREINCUBATION): inactive; negative | mutagenic call (Test System: AMES SALMONELLA TYPHIMURIUM, Strain/Indicator: TA1537, Metabolic Activation: RAT, LIVER, S-9, PHENOBARBITAL AND 5,6-BENZOFLAVONE, Method: PREINCUBATION (20 MIN)): active; positive | mutagenic call (Test System: AMES SALMONELLA TYPHIMURIUM, Strain/Indicator: TA1538, Metabolic Activation: NONE, Method: PREINCUBATION (20 MIN)): inactive; negative | mutagenic call (Test System: AMES SALMONELLA TYPHIMURIUM, Strain/Indicator: TA1538, Metabolic Activation: RAT, LIVER, S-9, PHENOBARBITAL AND 5,6-BENZOFLAVONE, Method: PREINCUBATION (20 MIN)): inactive; negative | mutagenic call (Test System: AMES SALMONELLA TYPHIMURIUM, Strain/Indicator: TA2637, Metabolic Activation: NONE, Method: PREINCUBATION (20 MIN)): active; positive | mutagenic call (Test System: AMES SALMONELLA TYPHIMURIUM, Strain/Indicator: TA2637, Metabolic Activation: RAT, LIVER, S-9, PHENOBARBITAL AND 5,6-BENZOFLAVONE, Method: PREINCUBATION (20 MIN)): active; positive | mutagenic call (Test System: AMES SALMONELLA TYPHIMURIUM, Strain/Indicator: TA7001, Metabolic Activation: NONE, Method: FLUCTUATION (MICROTITER)): inactive; negative | mutagenic call (Test System: AMES SALMONELLA TYPHIMURIUM, Strain/Indicator: TA7001, Metabolic Activation: RAT LIVER S-9, AROCLOR 1254, Method: FLUCTUATION (MICROTITER)): inactive; negative | mutagenic call (Test System: AMES SALMONELLA TYPHIMURIUM, Strain/Indicator: TA7002, Metabolic Activation: NONE, Method: FLUCTUATION (MICROTITER)): inactive; negative | mutagenic call (Test System: AMES SALMONELLA TYPHIMURIUM, Strain/Indicator: TA7002, Metabolic Activation: RAT LIVER S-9, AROCLOR 1254, Method: FLUCTUATION (MICROTITER)): inactive; negative | mutagenic call (Test System: AMES SALMONELLA TYPHIMURIUM, Strain/Indicator: TA7003, Metabolic Activation: NONE, Method: FLUCTUATION (MICROTITER)): inactive; negative | mutagenic call (Test System: AMES SALMONELLA TYPHIMURIUM, Strain/Indicator: TA7003, Metabolic Activation: RAT LIVER S-9, AROCLOR 1254, Method: FLUCTUATION (MICROTITER)): inactive; negative | mutagenic call (Test System: AMES SALMONELLA TYPHIMURIUM, Strain/Indicator: TA7004, Metabolic Activation: NONE, Method: FLUCTUATION (MICROTITER)): inactive; negative | mutagenic call (Test System: AMES SALMONELLA TYPHIMURIUM, Strain/Indicator: TA7004, Metabolic Activation: RAT LIVER S-9, AROCLOR 1254, Method: FLUCTUATION (MICROTITER)): inactive; negative | mutagenic call (Test System: AMES SALMONELLA TYPHIMURIUM, Strain/Indicator: TA7005, Metabolic Activation: NONE, Method: FLUCTUATION (MICROTITER)): inactive; negative | mutagenic call (Test System: AMES SALMONELLA TYPHIMURIUM, Strain/Indicator: TA7005, Metabolic Activation: RAT LIVER S-9, AROCLOR 1254, Method: FLUCTUATION (MICROTITER)): inactive; negative | mutagenic call (Test System: AMES SALMONELLA TYPHIMURIUM, Strain/Indicator: TA7006, Metabolic Activation: NONE, Method: FLUCTUATION (MICROTITER)): inactive; negative | mutagenic call (Test System: AMES SALMONELLA TYPHIMURIUM, Strain/Indicator: TA7006, Metabolic Activation: RAT LIVER S-9, AROCLOR 1254, Method: FLUCTUATION (MICROTITER)): inactive; negative | mutagenic call (Test System: E. COLI, Strain/Indicator: WP2, Metabolic Activation: NONE, Method: PREINCUBATION (20 OR 60 MIN)): inactive; negative | mutagenic call (Test System: E. COLI, Strain/Indicator: WP2, Metabolic Activation: NONE, Method: STANDARD PLATE): inactive; negative | mutagenic call (Test System: E. COLI, Strain/Indicator: WP2 UVRA, Metabolic Activation: NONE, Method: PREINCUBATION (20 MIN)): active; positive | mutagenic call (Test System: E. COLI, Strain/Indicator: WP2 UVRA, Metabolic Activation: NONE, Method: PREINCUBATION (60 MIN)): inactive; negative | mutagenic call (Test System: E. COLI, Strain/Indicator: WP2 UVRA, Metabolic Activation: NONE, Method: STANDARD PLATE): active; positive | mutagenic call (Test System: MOUSE LYMPHOMA, Strain/Indicator: L5178Y (TK+/TK-), Metabolic Activation: NONE, Method: SUSPENSION/PLATE): active; positive
